The conditions of data set [1]: in vivo; cited from earlier work.
For data set [2] the following is noted: cited from earlier work.
The conditions of data set [3]: cited from earlier work. The source holds these as a separate data set.
For data set [4] the following is noted: cited from earlier work. The source holds these as a separate data set.
Data set [5] can be described thus: Solubility and stability of diacerein at ambient temperature for one hour. It counts as physicochemical. The source says:
(§1) The tables below indicate the solubility and stability of diacerein in buffer solutions with different pH values. […] The degradation products including rhein increase at a pH above 5. The poor stability of diacerein in the intestinal environment may result in incomplete absorption and cause poor and variable bioavailability. Moreover, one of the increased degradants in the intestinal environment, rhein, has been suspected to be a major factor in stimulating colon mucosa and results in diarrhea. Accordingly, methods to stabilize diacerein during gastro-intestinal absorption might improve its bioavailability as well as the side effect of diarrhea. The stabilization methods for use with diacerein may include the addition of acidifying or buffering agents or complexation with cyclodextrins.

Data set [6] in a line: Solubility and stability pH profile of diacerein at ambient temperature for 48 hours. It counts as physicochemical. To be noted: for Proportion of Diacerein and its degradants: Diacerein / solubility at 48 h: 48 hours; for solubility at 48 h: thermodynamic from solid, read-out: Total solubility.
From the text: as §1

In general, solubility refers to the concentration that dissolves in the medium under given conditions.

≈ marks a conversion by molar mass, not a printed value. Read-outs that look alike come from different tables or passages of the source.

On to `O=C(O)c1cc(O)c2c(c1)C(=O)c1cccc(O)c1C2=O` [Rhein], for which, in data set [1], the “conjugated in the liver to rhein glucuronide” value is given as 60%, the “conjugated in the liver to rhein sulfate” value is 20% and the “eliminated by the renal route” value is reported as 20%.

Consider `CC(=O)Oc1cccc2c1C(=O)c1c(OC(C)=O)cc(C(=O)O)cc1C2=O` [Diacerein, 4,5-bis(acetyloxy)-9,10-dioxo-2-anthracene carboxylic acid], for which the “conversion before reaching the systemic circulation” value in data set [1] is reported as “entirely converted into rhein”. Besides, the “diarrhea or soft stools occurred in the patients” value in data set [2] (3-year clinical study, diacerein twice a day with meals) is “up to 30%”. Moreover, the severity of diarrhea result in data set [2] (occurs within the first two weeks of treatment) is “mild-to-moderate”. Further, in data set [3], the Oral bioavailability was 35-56%. For the same compound, the bioavailability with feeding in data set [3] (oral, feeding) is 43-70%. For the same compound, in data set [4], the solubility in water result is given as “practically insoluble”. The “Proportion of Diacerein and its degradants: Diacerein” value in data set [5] (final pH 6.55*) amounted to 90%; in data set [5] (final pH 6.70*), 83%; in data set [6] (0.01N HCl, final pH 1.98, ambient temperature), 100%; in data set [6] (50 mM NaH2PO4, final pH 3.03, ambient temperature) it was 100%; in data set [6] (50 mM NaH2PO4, final pH 4.17, ambient temperature) it was 100%; in data set [6] (50 mM NaH2PO4, final pH 5.04, ambient temperature), 60%. Further, the “Proportion of Diacerein and its degradants: Diacerein” value amounted to 77% in data set [6] (50 mM NaH2PO4, final pH 5.97, ambient temperature); 45% in data set [6] (50 mM NaH2PO4, final pH 6.55, ambient temperature); 34% in data set [6] (50 mM NaH2PO4, final pH 6.70, ambient temperature); 100% in data set [6] (0.1N HCl, final pH 1.17, ambient temperature); 90% in data set [6] (Water, final pH 5.79, ambient temperature). Moreover, the solubility at 48 h in data set [6] (50 mM NaH2PO4 buffer, aqueous buffer, 50 mM NaH2PO4, final pH 3.03, ambient temperature) was 0.35 µg/mL (≈ 0.95 µM); in data set [6] (50 mM NaH2PO4 buffer, aqueous buffer, 50 mM NaH2PO4, final pH 4.17, ambient temperature), 0.43 µg/mL (≈ 1.17 µM); in data set [6] (buffer solution (0.01N HCl), simulated gastric fluid, 0.01N HCl, final pH 1.98, ambient temperature), 0.15 µg/mL (≈ 0.407 µM); in data set [6] (simulated gastric fluid, 0.1N HCl, final pH 1.17, ambient temperature) it was 0.17 µg/mL (≈ 0.462 µM). Moreover, the “solubility in buffer solution” value in data set [6] (pH below 4.17) is on record as “relatively low”. Besides, the “stability in buffer solution” value in data set [6] (pH below 4.17) was “stable”.

Values taken from patent US20130156857A1, “Pharmaceutical Compositions Containing Diacerein” (TWI BIOTECHNOLOGY, INC., priority 2008, published 2013).
